Where no end group is shown, it is not given here.
Tests used:
[1] = test system: Escherichia coli ATCC 25922; conditions: ATCC 25922, 18 h; for E. coli ATCC 25922 killed in the MIC90 experiments: 30
Description: (§1) Contrasting to the simulation results of W3_p1 and W3_p2, W3_db5 has only one Trp (W3) inserted into the bacterial membrane by the end of 1 μs simulation (Supplementary Movie 1 and Supplementary Fig. 3). […] Experiments are performed in pentaplicate and MIC90 is determined as the majority results of the 5 replicates (see “Methods”). It is worth mentioning that we could reproduce the reported MIC90 values for three published AMPs when using the same culture protocol to culture E. coli ATCC 25922. […] The latter result is consistent with the MD-based natural insertion results (Supplementary Fig. 3).
(§2) To measure the antimicrobial activity of peptides, MICs were determined by the broth-dilution assay as described in Clinical and Laboratory Standards Institute (CLSI) documents M27-A3 for yeasts[63] and M07-A9 for bacteria[64] with minor modifications. Briefly, E. coli ATCC 25922 and C. albicans SC5314 were recovered from frozen stock by growing overnight at 37 °C on LB (Luria-Bertani) and YPD (Yeast Extract-Peptone-Dextrose) agar plates, separately. A single colony of E. coli was inoculated into 5 ml LB medium and grown overnight at 37 °C with shaking at 220 rpm. Cells were then diluted into MHB (Mueller–Hinton broth) at 1:100, and grew until the optical density at 600 nm (OD600) reached 0.4 to 0.8. For C. albicans SC5314, a single colony was inoculated in YPD broth and grown overnight at 30 °C with shaking at 180 rpm. Cells from the overnight culture were subcultured into fresh YPD and grew to mid-log phase. Finally, E. coli and C. albicans cells obtained from the above-described were diluted into MHB and LYM, a modified RPMI 1640 medium[65] to a concentration of ~5 × 10^5 cells/ml and ~4 × 10^4 cells/ml, respectively. To determine the MIC values, one hundred microliters of cells was placed in each well of a clear bottom 96-well microplate, followed by independently adding 100 μl peptides with different concentrations (in MHB or LYM). The final concentrations in the wells were 120, 60, 30, 15, 7.5, 3.75, and 1.88 μg/ml for peptides, ~2.5 × 10^5 cells/ml for E. coli and ~2 × 10^4 cells/ml for C. albicans. The plate was incubated at 37 °C with shaking at 220 rpm for 18 h (E. coli) and at 180 rpm for 24 h (C. albicans). The OD600 values were measured using a iMark^TM Microplate Absorbance Reader (Bio-Rad). The MIC90 value was determined by 90% reduction in growth compared with that of the peptide-free growth control. Experiments were performed in pentaplicate, and MIC90 was determined as the majority value out of 5 repeats.

[2] = test system: Escherichia coli ATCC 25922; conditions: E. coli ATCC 25922; cited from earlier work
Description: Contrasting to the simulation results of W3_p1 and W3_p2, W3_db5 has only one Trp (W3) inserted into the bacterial membrane by the end of 1 μs simulation (Supplementary Movie 1 and Supplementary Fig. 3). To further examine the bactericidal and anti-fungal activities of these AMPs, we measure the minimal inhibitory concentration (MIC90) at which the growth of 90% of the pathogenic fungus Candida albicans SC5314 and Escherichia coli ATCC 25922 can be inhibited. Experiments are performed in pentaplicate and MIC90 is determined as the majority results of the 5 replicates (see “Methods”). It is wor ...

Candida albicans SC5314 = conditions: SC5314, 24 h
Description: as §1, §2

human RBCs = assay type: cell-based
Description: The hemolytic toxicity was determined by the hemolysis against human RBCs as in previous publication. First, RBCs from healthy donors were mixed with EDTA in the collecting tubes to inhibit the coagulation. Then the RBCs were washed for three repeats as follows—centrifugation at RCF 800 × g for 10 min, removal of the supernatant, and resuspension with PBS buffer. Such washed RBCs stock was finally diluted with a PBS buffer to be the 10% (v/v) RBCs solution for assays. Then total eight samples of various final concentrations (240, 120, 60, 30, 15, 7.5, 3.75, and 1.88 μg/ml) for each AMP in 96-well microplate were prepared by mixing 10% RBCs and diluted AMP solutions, respectively, at ratio 1:1 (v/v) into final volume 200 μl. All samples were placed under the condition of 37 °C for 1 h and then centrifuged at RCF 800 g for 10 min. Finally, all these supernatants from samples and controls were picked out for the measurement of optical density at the 450 nm wavelength. The data processing was performed to calculate the hemolytic percentage defined as [Asample − Acontrol−]/[Acontrol+ − Acontrol−], where Acontrol+ and Acontrol− are the measurement at wavelength 450 nm for the positive and negative controls, that are 100 μl 10% RBCs suspended in 100 μl PBS buffer with and without 2% (v/v) Triton X-100 (a known detergent to lyse the RBCs), respectively. The final hemolytic percentage for AMPs at various concentrations was determined by the mean values of three repeated experiments, and MHC5 value, defined as the minimal concentration of AMPs leading to at least 5% hemolysis of RBCs, can be determined.

[3] = Circular dichroism, helicity percentage by DichroWeb; assay type: physicochemical; conditions: CD spectra 190 to 260 nm
Text: We found W3_db5 adopts a higher helicity than W3_n2 that is found to be more helical than W3_n1 (Fig. 5), where W3_n1 has a helicity closest to Tat, a popular cell-penetrating peptide known to take a random coil structure. This low helicity is consistent with the fact that the “WGN WGG W” stretch in W3_n1 takes mostly coil and sheet structures in its original PDB file (PDB ID: 4F54). The online software DichroWeb[44] provides a helicity percentage prediction for Tat, W3_n1, W3_n2, W3_db5, W3_p1, W3_p2, and CM15 based on their spectra data over the wavelength 190 to 260 nm wavelength −6.5, 2.0, 18.3, 60.2, 57.8, 51.2, and 54%, respectively.
Fig. 5 The CD spectra from 190 to 260 nm for all the examined peptides in the study where CM15[1],[50] is a known helical AMP and Tat, a cell-penetrating peptide (YGRKKRRQRRR) extracted from the transactivating transcriptional activator, is in a random coil structure. All the experimental data are provided as a Source data file.

[4] = cited from earlier work
Text: It should be carefully noted that helicity percentage is also concentration-dependent. NMR-resolved structures are usually determined at a concentration of several mM, while CD spectra measure at a few tens of μM. It has been reported by several studies that the same helical peptide resolved by NMR (at high concentration) has a higher helicity percentage than that of the same measured by CD (at a lower concentration). For instance, an intragenic AMP (PDB ID: 6VLA) has a helicity percentage of 94% according to its NMR-resolved structure but 59% by CD[48]. Similarly, an AMP from Whiteleg shrimp ...

| Substance | MIC90 vs. E. coli [1] | reported MIC [2] [µg/mL] | MIC90 vs. C. albicans (Candida albicans SC5314) [µg/mL] | other results |
| --- | --- | --- | --- | --- |
| FKRIVQRIKDFLR-NH2 (C-terminus assumed) [FK13] | 25 µg/mL | 27.5 | – | – |
| GLLKKIKWLL-NH2 (C-terminus assumed) [Anoplin-R5KT8W] | – | 15.1 | – | – |
| KKWGNWGGWRLKK [W3_n1] | >>120 μg/ml | – | – | E. coli ATCC 25922 killed in the MIC90 experiments [1]: 2.5% |
| KKWKCWARWRLKK [W3_db5] | 30 µg/mL | – | 3.75 | hemolysis reduction of human RBCs as compared to templates W3-p1 and W3-p2 (human RBCs): 20–40 folds |
| KKWKDWESWRLKK [W3_n2] | >>120 μg/ml | – | – | E. coli ATCC 25922 killed in the MIC90 experiments [1]: 9.5% |
| KKWLKWLKWLKKK [W3_p2] | 15 µg/mL | – | 7.5 | MHC5 (human RBCs): 90 µg/mL |
| KKWRKWLKWLAKK [W3_p1] | 15 µg/mL | – | 7.5 | MHC5 (human RBCs): 120 µg/mL |
| KWKLFKKIGAVLKVL-NH2 (C-terminus assumed) [CM15] | – | 4.0 | – | helicity percentage (DichroWeb, from CD spectra) [3]: 54%; helicity by NMR [4]: 80%; helicity percentage by CD [4]: 65% |
